Data on eight compounds can be found in patent US10004701B2, “Methods and compositions for treating infection” (UNIVERSITY OF ROCHESTER, priority 2012, dated 2018).

Counter-ions that a name gives are not always drawn. Like-named read-outs stand apart in the source and are kept apart here.

Holding throughout (assay): AK assay 384-well format, Prestwick library screening
Test [1] has as its system E. faecium. The format is cell-based, Enterococcus faecium. The note with it: 50 μM final drug concentration; for AK-based Prestwick library screening result, E. faecium (fold increase in extracellular AK activity): positive cutoff 3-fold increase; for fold induction at 50 µM: Enterococcus faecium, 3 h.
Test [2] concerns S. aureus strain USA300-0114. Format: cell-based, Staphylococcus aureus. Conditions: 50 μM final drug concentration; for AK-based Prestwick library screening result, S. aureus (fold increase in extracellular AK activity): positive cutoff 3-fold increase; for fold induction at 50 µM: Staphylococcus aureus, USA300, 3 h.
The test system of test [3] is K. pneumoniae. The format is cell-based, Klebsiella pneumoniae. The note with it: 50 μM final drug concentration; for AK-based Prestwick library screening result, K. pneumoniae (fold increase in extracellular AK activity): positive cutoff 3-fold increase; for fold induction at 50 µM: Klebsiella pneumoniae, 3 h.
For test [4], the system named is A. baumannii strain 98-37-09. Format: cell-based, Acinetobacter baumannii. Conditions: 50 μM final drug concentration; for AK-based Prestwick library screening result, A. baumannii (fold increase in extracellular AK activity): positive cutoff 3-fold increase; for fold induction at 50 µM: Acinetobacter baumannii, 983709, 3 h.
The test system of test [5] is P. aeruginosa. The format is cell-based, Pseudomonas aeruginosa. Conditions: 50 μM final drug concentration; for AK-based Prestwick library screening result, P. aeruginosa (fold increase in extracellular AK activity): positive cutoff 3-fold increase; for fold induction at 50 µM: Pseudomonas aeruginosa, 3 h.
Test [6] has as its system E. cloacae. The format is cell-based, Enterobacter cloacae. Conditions: 50 μM final drug concentration; for AK-based Prestwick library screening result, E. cloacae (fold increase in extracellular AK activity): positive cutoff 3-fold increase; for fold induction at 50 µM: Enterobacter cloacae, 3 h.
For test [7], the system named is E. coli. Format: cell-based, Escherichia coli. The note with it: 50 μM final drug concentration; for fold induction at 50 µM: Escherichia coli, 3 h.

Consider `N[C@H]1CONC1=O` [(S)-(−)-Cycloserine], for which the “AK-based Prestwick library screening result, E. faecium (fold increase in extracellular AK activity)” value in test [1] (planktonic E. faecium) was 1.1. Besides, in test [2] (planktonic S. aureus), the “AK-based Prestwick library screening result, S. aureus (fold increase in extracellular AK activity)” value came out at 1.1. Also, in test [3] (planktonic K. pneumoniae), the “AK-based Prestwick library screening result, K. pneumoniae (fold increase in extracellular AK activity)” value was found to be 1.0. In test [4] (planktonic A. baumannii), the “AK-based Prestwick library screening result, A. baumannii (fold increase in extracellular AK activity)” value is 1.1. In addition, in test [5] (planktonic P. aeruginosa), the “AK-based Prestwick library screening result, P. aeruginosa (fold increase in extracellular AK activity)” value amounted to 1.1. For the same compound, the “AK-based Prestwick library screening result, E. cloacae (fold increase in extracellular AK activity)” value in test [6] (planktonic E. cloacae) turned out to be 1.6. In addition, in test [7] (planktonic E. coli, positive cutoff 3-fold increase), the “AK-based Prestwick library screening result, E. coli (fold increase in extracellular AK activity)” value amounted to 1.3.

For the compound `CN(C)Cc1c[nH]c2ccccc12` [Gramine], the fold induction at 50 µM in test [1] (planktonic, cutoff for positive 3-fold increase, read-out: AK-based Prestwick Library Screening Results, E. faecium (fold increase in extracellular AK activity)) was found to be 1; in test [2] (planktonic, cutoff for positive 3-fold increase, read-out: AK-based Prestwick Library Screening Results, S. aureus (fold increase in extracellular AK activity)) it was 1.3; in test [3] (planktonic, cutoff for positive 3-fold increase, read-out: AK-based Prestwick Library Screening Results, K. pneumoniae (fold increase in extracellular AK activity)) it was 1; in test [4] (planktonic, cutoff for positive 3-fold increase, read-out: AK-based Prestwick Library Screening Results, A. baumannii (fold increase in extracellular AK activity)) it was 1.3; in test [5] (planktonic, cutoff for positive 3-fold increase, read-out: AK-based Prestwick Library Screening Results, P. aeruginosa (fold increase in extracellular AK activity)), 1.1; in test [6] (planktonic, cutoff for positive 3-fold increase, read-out: AK-based Prestwick Library Screening Results, E. cloacae (fold increase in extracellular AK activity)) it was 1.5. The fold induction at 50 µM in test [7] (planktonic, cutoff for positive 3-fold increase, read-out: AK-based Prestwick Library Screening Results, E. coli (fold increase in extracellular AK activity)) amounted to 1.2.

For `CCN(CC)CCOC(=O)c1ccc(N)cc1` [Procaine hydrochloride], the fold induction at 50 µM in test [1] (384-well format, cutoff for positive-scoring molecules 3-fold increase, read-out: AK-based Prestwick Library Screening Results, E. faecium (increase in extracellular AK activity)) was determined as 0.9; in test [2] (384-well format, cutoff for positive-scoring molecules 3-fold increase, read-out: AK-based Prestwick Library Screening Results, S. aureus (increase in extracellular AK activity)), 1.2; in test [3] (384-well format, cutoff for positive-scoring molecules 3-fold increase, read-out: AK-based Prestwick Library Screening Results, K. pneumoniae (increase in extracellular AK activity)), 1; in test [4] (384-well format, cutoff for positive-scoring molecules 3-fold increase, read-out: AK-based Prestwick Library Screening Results, A. baumannii (increase in extracellular AK activity)), 1.1; in test [5] (384-well format, cutoff for positive-scoring molecules 3-fold increase, read-out: AK-based Prestwick Library Screening Results, P. aeruginosa (increase in extracellular AK activity)), 1; in test [6] (384-well format, cutoff for positive-scoring molecules 3-fold increase, read-out: AK-based Prestwick Library Screening Results, E. cloacae (increase in extracellular AK activity)), 1.4. Besides, in test [7] (384-well format, cutoff for positive-scoring molecules 3-fold increase, read-out: AK-based Prestwick Library Screening Results, E. coli (increase in extracellular AK activity)), the fold induction at 50 µM turned out to be 1.2.

In the case of `Cn1nnnc1SCC1=C(C(=O)O)N2C(=O)[C@@H](NC(=O)[C@H](O)c3ccccc3)[C@H]2SC1` [Cefamandole sodium salt], the fold induction at 50 µM came out at 0.9 in test [1] (planktonic, cutoff for positive-scoring molecules 3-fold increase, read-out: AK-based Prestwick Library Screening Results, E. faecium (fold increase in extracellular AK activity)); 1.3 in test [2] (planktonic, cutoff for positive-scoring molecules 3-fold increase, read-out: AK-based Prestwick Library Screening Results, S. aureus (fold increase in extracellular AK activity)); 2.3 in test [3] (planktonic, cutoff for positive-scoring molecules 3-fold increase, read-out: AK-based Prestwick Library Screening Results, K. pneumoniae (fold increase in extracellular AK activity)); 0.6 in test [4] (planktonic, cutoff for positive-scoring molecules 3-fold increase, read-out: AK-based Prestwick Library Screening Results, A. baumannii (fold increase in extracellular AK activity)); 0.7 in test [5] (planktonic, cutoff for positive-scoring molecules 3-fold increase, read-out: AK-based Prestwick Library Screening Results, P. aeruginosa (fold increase in extracellular AK activity)); 0.9 in test [6] (planktonic, cutoff for positive-scoring molecules 3-fold increase, read-out: AK-based Prestwick Library Screening Results, E. cloacae (fold increase in extracellular AK activity)). Besides, in test [7] (planktonic, cutoff for positive-scoring molecules 3-fold increase, read-out: AK-based Prestwick Library Screening Results, E. coli (fold increase in extracellular AK activity)), the fold induction at 50 µM worked out at 10.5.

For `COc1ccc2c3c([nH]c2c1)[C@H]1C[C@H]2[C@H](C[C@@H](O)[C@H](OC)[C@H]2C(=O)O)CN1CC3.Cl` [Reserpinic acid hydrochloride], the “AK-based Prestwick library screening result, E. faecium (fold increase in extracellular AK activity)” value in test [1] (planktonic E. faecium) was found to be 0.9. Also, in test [2] (planktonic S. aureus), the “AK-based Prestwick library screening result, S. aureus (fold increase in extracellular AK activity)” value was 0.6. Further, the “AK-based Prestwick library screening result, K. pneumoniae (fold increase in extracellular AK activity)” value in test [3] (planktonic K. pneumoniae) was determined as 0.7. The “AK-based Prestwick library screening result, A. baumannii (fold increase in extracellular AK activity)” value in test [4] (planktonic A. baumannii) came to 0.8. In addition, the “AK-based Prestwick library screening result, P. aeruginosa (fold increase in extracellular AK activity)” value in test [5] (planktonic P. aeruginosa) is given as 0.8. Moreover, the “AK-based Prestwick library screening result, E. cloacae (fold increase in extracellular AK activity)” value in test [6] (planktonic E. cloacae) was found to be 1.0. The “AK-based Prestwick library screening result, E. coli (fold increase in extracellular AK activity)” value in test [7] (planktonic E. coli, […]) came to 0.9.

`C[C@]12CC[C@@H]3c4ccc(O)cc4CC[C@H]3[C@@H]1CC[C@@H]2O` [Estradiol-17 beta]: the “AK-based Prestwick Library Screening Results, E. faecium (increase in extracellular AK activity)” value in test [1] (planktonic E. faecium, cutoff for positive-scoring molecules 3-fold increase) turned out to be 0.9. Besides, the “AK-based Prestwick Library Screening Results, S. aureus (increase in extracellular AK activity)” value in test [2] (planktonic S. aureus, cutoff for positive-scoring molecules 3-fold increase) is 0.8. In test [3] (planktonic K. pneumoniae, cutoff for positive-scoring molecules 3-fold increase), the “AK-based Prestwick Library Screening Results, K. pneumoniae (increase in extracellular AK activity)” value is given as 0.8. For the same compound, the “AK-based Prestwick Library Screening Results, A. baumannii (increase in extracellular AK activity)” value in test [4] (planktonic A. baumannii, cutoff for positive-scoring molecules 3-fold increase) was determined as 0.8. Moreover, the “AK-based Prestwick Library Screening Results, P. aeruginosa (increase in extracellular AK activity)” value in test [5] (planktonic P. aeruginosa, cutoff for positive-scoring molecules 3-fold increase) was determined as 1.0. Moreover, in test [6] (planktonic E. cloacae, cutoff for positive-scoring molecules 3-fold increase), the “AK-based Prestwick Library Screening Results, E. cloacae (increase in extracellular AK activity)” value amounted to 1.3. In addition, the “AK-based Prestwick Library Screening Results, E. coli (increase in extracellular AK activity)” value in test [7] (planktonic E. coli, cutoff for positive-scoring molecules 3-fold increase) was 1.1.

Take `Cc1noc(NS(=O)(=O)c2ccc(N)cc2)c1C` [Sulfisoxazole]: the fold induction at 50 µM was found to be 0.9 in test [1] (planktonic E. faecium, cutoff for positive-scoring molecules 3-fold increase, read-out: AK-based Prestwick Library Screening Results, E. faecium (increase in extracellular AK activity)); 0.5 in test [2] (planktonic S. aureus, cutoff for positive-scoring molecules 3-fold increase, read-out: AK-based Prestwick Library Screening Results, S. aureus (increase in extracellular AK activity)); 0.5 in test [3] (planktonic K. pneumoniae, cutoff for positive-scoring molecules 3-fold increase, read-out: AK-based Prestwick Library Screening Results, K. pneumoniae (increase in extracellular AK activity)); 1 in test [4] (planktonic A. baumannii, cutoff for positive-scoring molecules 3-fold increase, read-out: AK-based Prestwick Library Screening Results, A. baumannii (increase in extracellular AK activity)); 0.6 in test [5] (planktonic P. aeruginosa, cutoff for positive-scoring molecules 3-fold increase, read-out: AK-based Prestwick Library Screening Results, P. aeruginosa (increase in extracellular AK activity)); 0.7 in test [6] (planktonic E. cloacae, cutoff for positive-scoring molecules 3-fold increase, read-out: AK-based Prestwick Library Screening Results, E. cloacae (increase in extracellular AK activity)). In test [7] (planktonic E. coli, cutoff for positive-scoring molecules 3-fold increase, read-out: AK-based Prestwick Library Screening Results, E. coli (increase in extracellular AK activity)), the fold induction at 50 µM worked out at 0.7.

As to `COc1ccc(CC2c3cc(OC)c(OC)cc3CCN2C)cc1OC` (racemic) [Laudanosine (R,S)], the “AK-based Prestwick Library Screening Results, E. faecium (increase in extracellular AK activity)” value in test [1] (planktonic E. faecium, […]) was 0.9. For the same compound, the “AK-based Prestwick Library Screening Results, S. aureus (increase in extracellular AK activity)” value in test [2] (planktonic S. aureus, […]) stood at 0.7. Also, the “AK-based Prestwick Library Screening Results, K. pneumoniae (increase in extracellular AK activity)” value in test [3] (planktonic K. pneumoniae, […]) worked out at 0.7. Further, the “AK-based Prestwick Library Screening Results, A. baumannii (increase in extracellular AK activity)” value in test [4] (planktonic A. baumannii, […]) is on record as 0.9. The “AK-based Prestwick Library Screening Results, P. aeruginosa (increase in extracellular AK activity)” value in test [5] (planktonic P. aeruginosa, […]) is 0.9. For the same compound, the “AK-based Prestwick Library Screening Results, E. cloacae (increase in extracellular AK activity)” value in test [6] (planktonic E. cloacae, […]) was 1.3. Moreover, the “AK-based Prestwick Library Screening Results, E. coli (increase in extracellular AK activity)” value in test [7] (planktonic E. coli, […]) was 1.0.
